Source: US20210070748A1, “INHIBITORS OF BRUTONS TYROSINE KINASE” (Pharmacyclics LLC, priority 2015, published 2021)

What was measured:
Assay type in all cases: biochemical
BTK-WT = target: T1, BTK-WT (Homo sapiens, UniProt Q06187); assay: Btk in vitro inhibitory activity (one of Method A TR-FRET, Method B electrophoretic mobility shift, Method C radiometric filter binding); settings: D-compounds panel data; read-out: IC50 BTK-WT
T1 construct: purified from insect cells as a full-length construct containing an N-terminal 6X-His tag; His6 (N); made in house; host or cells: insect cells (baculovirus Sf21 in Method B)

LCK = LCK (Homo sapiens, UniProt P06239); assay: Inhibition of a panel of kinases, in vitro HotSpot kinase assay: LCK; settings: D-compounds panel data; 1 μM ATP; read-out: IC50 LCK
ITK = target: T2, ITK (Homo sapiens, UniProt Q08881); assay: Inhibition of a panel of kinases, in vitro HotSpot kinase assay: ITK; settings: D-compounds panel data; 1 μM ATP
T2 sequence (Q08881 1-620): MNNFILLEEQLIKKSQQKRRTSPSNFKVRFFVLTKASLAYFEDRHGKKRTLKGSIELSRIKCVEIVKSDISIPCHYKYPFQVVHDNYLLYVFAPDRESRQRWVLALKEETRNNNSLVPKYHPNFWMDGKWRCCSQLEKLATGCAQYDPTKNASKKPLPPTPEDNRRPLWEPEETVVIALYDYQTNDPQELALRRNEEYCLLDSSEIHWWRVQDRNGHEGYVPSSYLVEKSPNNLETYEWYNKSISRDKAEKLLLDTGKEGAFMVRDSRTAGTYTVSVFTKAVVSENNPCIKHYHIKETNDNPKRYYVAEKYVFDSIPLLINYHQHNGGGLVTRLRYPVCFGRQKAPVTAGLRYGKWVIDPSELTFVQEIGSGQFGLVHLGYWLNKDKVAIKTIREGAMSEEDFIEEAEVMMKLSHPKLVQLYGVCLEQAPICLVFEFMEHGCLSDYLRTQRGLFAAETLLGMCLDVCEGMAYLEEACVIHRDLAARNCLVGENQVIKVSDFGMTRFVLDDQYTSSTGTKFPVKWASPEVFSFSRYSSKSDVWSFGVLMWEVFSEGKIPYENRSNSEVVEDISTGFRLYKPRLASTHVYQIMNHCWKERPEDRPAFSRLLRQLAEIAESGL
Experimental: (§1) The degree of inhibition of a panel of kinases is determined using the in vitro HotSpot kinase assay (purified enzymes, ^33P-ATP, an appropriate substrate and 1 μM ATP).

EGFR = EGFR (Homo sapiens, UniProt P00533); assay: Inhibition of a panel of kinases, in vitro HotSpot kinase assay: EGFR; settings: D-compounds panel data; 1 μM ATP
Experimental: as §1

SRC = SRC (Homo sapiens, UniProt P12931); assay: Inhibition of a panel of kinases, in vitro HotSpot kinase assay: SRC; settings: D-compounds panel data; 1 μM ATP
Experimental: as §1

Sequence of EGFR (P00533 25-1210): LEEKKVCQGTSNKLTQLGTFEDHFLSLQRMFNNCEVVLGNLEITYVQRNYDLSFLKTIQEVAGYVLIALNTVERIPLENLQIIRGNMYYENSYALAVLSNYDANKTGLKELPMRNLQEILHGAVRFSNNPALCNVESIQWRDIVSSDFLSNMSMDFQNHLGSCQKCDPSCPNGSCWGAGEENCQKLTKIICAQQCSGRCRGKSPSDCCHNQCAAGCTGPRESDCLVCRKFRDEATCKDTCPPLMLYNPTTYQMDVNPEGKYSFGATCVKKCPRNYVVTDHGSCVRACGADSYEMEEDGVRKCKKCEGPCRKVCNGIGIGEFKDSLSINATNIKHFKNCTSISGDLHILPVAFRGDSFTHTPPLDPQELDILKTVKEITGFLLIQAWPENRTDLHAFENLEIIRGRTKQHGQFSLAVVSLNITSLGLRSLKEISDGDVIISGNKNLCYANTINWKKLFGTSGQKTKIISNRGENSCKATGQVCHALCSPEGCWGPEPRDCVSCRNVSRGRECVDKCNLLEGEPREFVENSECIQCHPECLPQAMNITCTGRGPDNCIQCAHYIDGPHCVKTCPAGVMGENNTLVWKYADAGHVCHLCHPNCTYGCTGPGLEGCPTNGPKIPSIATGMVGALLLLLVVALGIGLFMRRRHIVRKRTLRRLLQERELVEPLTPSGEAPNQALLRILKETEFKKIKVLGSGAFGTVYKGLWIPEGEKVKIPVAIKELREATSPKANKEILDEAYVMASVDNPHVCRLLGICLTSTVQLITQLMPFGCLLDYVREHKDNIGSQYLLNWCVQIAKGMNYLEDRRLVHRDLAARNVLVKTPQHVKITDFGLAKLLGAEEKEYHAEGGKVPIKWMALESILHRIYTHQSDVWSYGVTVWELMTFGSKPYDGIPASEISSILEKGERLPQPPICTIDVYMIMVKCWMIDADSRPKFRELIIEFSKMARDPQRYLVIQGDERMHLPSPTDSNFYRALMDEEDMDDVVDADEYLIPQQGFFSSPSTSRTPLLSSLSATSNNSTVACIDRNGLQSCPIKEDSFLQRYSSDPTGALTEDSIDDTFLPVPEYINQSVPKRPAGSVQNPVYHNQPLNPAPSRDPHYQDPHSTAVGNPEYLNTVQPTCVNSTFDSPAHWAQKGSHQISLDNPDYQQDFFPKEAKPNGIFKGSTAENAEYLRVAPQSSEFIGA
T1 sequence (Q06187 whole entry): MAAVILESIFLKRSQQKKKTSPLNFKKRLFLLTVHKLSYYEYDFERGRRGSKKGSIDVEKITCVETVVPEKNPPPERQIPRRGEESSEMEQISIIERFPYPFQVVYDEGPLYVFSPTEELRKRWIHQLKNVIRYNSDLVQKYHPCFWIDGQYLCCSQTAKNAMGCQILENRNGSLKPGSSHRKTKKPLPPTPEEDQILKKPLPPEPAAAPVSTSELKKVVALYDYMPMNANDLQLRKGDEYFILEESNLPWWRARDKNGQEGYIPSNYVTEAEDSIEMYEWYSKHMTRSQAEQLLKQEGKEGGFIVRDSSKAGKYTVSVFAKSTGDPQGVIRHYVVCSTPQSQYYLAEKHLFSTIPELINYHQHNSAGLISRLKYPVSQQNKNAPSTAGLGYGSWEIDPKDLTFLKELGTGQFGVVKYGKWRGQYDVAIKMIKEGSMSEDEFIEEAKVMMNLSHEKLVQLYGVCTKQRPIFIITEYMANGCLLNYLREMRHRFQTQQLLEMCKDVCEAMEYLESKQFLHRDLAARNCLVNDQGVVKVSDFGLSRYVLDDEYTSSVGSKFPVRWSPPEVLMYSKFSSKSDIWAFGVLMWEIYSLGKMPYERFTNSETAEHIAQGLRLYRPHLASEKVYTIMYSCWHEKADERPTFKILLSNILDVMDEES
Sequence of LCK (P06239 whole entry): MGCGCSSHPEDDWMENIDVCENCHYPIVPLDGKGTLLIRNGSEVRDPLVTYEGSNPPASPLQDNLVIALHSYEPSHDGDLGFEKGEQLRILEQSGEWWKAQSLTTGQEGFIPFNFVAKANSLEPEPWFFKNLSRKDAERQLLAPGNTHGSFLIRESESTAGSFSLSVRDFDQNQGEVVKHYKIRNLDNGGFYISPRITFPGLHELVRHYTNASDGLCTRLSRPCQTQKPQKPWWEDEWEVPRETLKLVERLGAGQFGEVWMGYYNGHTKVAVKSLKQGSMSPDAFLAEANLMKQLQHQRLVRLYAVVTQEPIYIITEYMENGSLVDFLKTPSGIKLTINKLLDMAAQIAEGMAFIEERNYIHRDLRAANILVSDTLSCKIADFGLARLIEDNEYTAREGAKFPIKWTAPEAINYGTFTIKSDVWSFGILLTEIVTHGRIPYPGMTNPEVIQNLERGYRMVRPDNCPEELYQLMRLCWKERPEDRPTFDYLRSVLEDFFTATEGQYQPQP
Sequence of SRC (P12931 whole entry): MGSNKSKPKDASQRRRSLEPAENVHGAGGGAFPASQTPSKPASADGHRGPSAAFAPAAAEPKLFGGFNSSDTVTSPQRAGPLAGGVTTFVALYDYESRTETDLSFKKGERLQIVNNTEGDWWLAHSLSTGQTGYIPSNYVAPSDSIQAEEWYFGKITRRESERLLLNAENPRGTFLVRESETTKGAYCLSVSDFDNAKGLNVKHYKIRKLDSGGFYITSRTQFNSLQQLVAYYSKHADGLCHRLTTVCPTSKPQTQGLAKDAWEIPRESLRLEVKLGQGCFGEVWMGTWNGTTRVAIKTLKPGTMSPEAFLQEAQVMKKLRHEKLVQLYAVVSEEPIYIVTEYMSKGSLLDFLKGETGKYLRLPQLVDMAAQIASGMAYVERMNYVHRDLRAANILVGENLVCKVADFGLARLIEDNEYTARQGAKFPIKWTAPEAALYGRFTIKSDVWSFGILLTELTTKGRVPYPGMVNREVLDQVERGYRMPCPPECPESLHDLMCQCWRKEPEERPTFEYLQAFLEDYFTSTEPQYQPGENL

Row | SMILES | IC50 (BTK-WT) | IC50 (LCK) | IC50 (ITK) | IC50 (EGFR) | IC50 (SRC)
1 | C[C@H]1CC[C@@H](NC(=O)c2ccc(C3CC3)cc2)CN1c1cnc(C(N)=O)c(Nc2cnn(C)c2)n1 [Example D-142, 5-[(2S,5R)-5-(4-cyclopropylbenzamido)-2-methylpiperidin-1-yl]-3-[(1-methyl-1H-pyrazol-4-yl)amino]pyrazine-2-carboxamide] | ≤ 10 nM | 10 to 100 nM | 1000 to 10000 nM | 1000 to 10000 nM | 10 to 100 nM
2 | C[C@@H]1CC[C@@H](NC(=O)c2ccc(C3CC3)cc2)CN1c1cnc(C(N)=O)c(Nc2cnn(C)c2)n1 [Example D-143, 5-[(2R,5R)-5-(4-cyclopropylbenzamido)-2-methylpiperidin-1-yl]-3-[(1-methyl-1H-pyrazol-4-yl)amino]pyrazine-2-carboxamide] | 10 to 100 nM | 1000 to 10000 nM | > 10000 nM | 1000 to 10000 nM | 1000 to 10000 nM
3 | C[C@H]1CC[C@H](NC(=O)c2ccc(C3CC3)cc2)CN1c1cnc(C(N)=O)c(Nc2cnn(C)c2)n1 [Example D-144, 5-[(2S,5S)-5-(4-cyclopropylbenzamido)-2-methylpiperidin-1-yl]-3-[(1-methyl-1H-pyrazol-4-yl)amino]pyrazine-2-carboxamide] | 100 to 1000 nM | 1000 to 10000 nM | > 10000 nM | > 10000 nM | 1000 to 10000 nM
4 | C[C@@H]1CC[C@H](NC(=O)c2ccc(C3CC3)cc2)CN1c1cnc(C(N)=O)c(Nc2cnn(C)c2)n1 [Example D-145, 5-[(2R,5S)-5-(4-cyclopropylbenzamido)-2-methylpiperidin-1-yl]-3-[(1-methyl-1H-pyrazol-4-yl)amino]pyrazine-2-carboxamide] | 10 to 100 nM | 1000 to 10000 nM | > 10000 nM | 1000 to 10000 nM | 1000 to 10000 nM
5 | C[C@@H]1[C@H](NC(=O)c2ccc(C3CC3)cc2)CCCN1c1cnc(C(N)=O)c(Nc2ccc(N3CCN(C)CC3)c(F)c2)n1 [Example D-146, 5-[(2R,3R)-3-(4-cyclopropylbenzamido)-2-methylpiperidin-1-yl]-3-{[3-fluoro-4-(4-methylpiperazin-1-yl)phenyl]amino}pyrazine-2-carboxamide] | ≤ 10 nM | 10 to 100 nM | 10 to 100 nM | 100 to 1000 nM | 10 to 100 nM
6 | Cn1cc(Nc2nc(N3CCCC4(C3)CN(c3ccc(C5CC5)cc3)C(=O)O4)cnc2C(N)=O)cn1 [Example D-147, 5-[3-(4-cyclopropylphenyl)-2-oxo-1-oxa-3,7-diazaspiro[4.5]decan-7-yl]-3-[(1-methyl-1H-pyrazol-4-yl)amino]pyrazine-2-carboxamide] | 10 to 100 nM | 100 to 1000 nM | > 10000 nM | 1000 to 10000 nM | 100 to 1000 nM
7 | Cc1cccc(-c2cnc(C3CCCN(c4cnc(C(N)=O)c(Nc5cnn(C)c5)n4)C3)[nH]2)c1 [Example D-148, 3-[(1-methyl-1H-pyrazol-4-yl)amino]-5-{3-[5-(3-methylphenyl)-1H-imidazol-2-yl]piperidin-1-yl}pyrazine-2-carboxamide] | 10 to 100 nM | 100 to 1000 nM | 1000 to 10000 nM | 1000 to 10000 nM | 100 to 1000 nM
8 | C[C@@H]1CC[C@H](NC(=O)c2ccc(C3CC3)cc2)CN1c1cnc(C(N)=O)c(Nc2ccc(N3CCN(C)CC3)c(F)c2)n1 [Example D-149, 5-[(2R,5 S)-5-(4-cyclopropylbenzamido)-2-methylpiperidin-1-yl]-3-{[3-fluoro-4-(4-methylpiperazin-1-yl)phenyl]amino}pyrazine-2-carboxamide] | 10 to 100 nM | 100 to 1000 nM | 100 to 1000 nM | > 10000 nM | 100 to 1000 nM
9 | C[C@H]1CC[C@@H](NC(=O)c2ccc(C3CC3)cc2)CN1c1cnc(C(N)=O)c(Nc2ccc(N3CCN(C)CC3)c(F)c2)n1 [Example D-150, 5-[(2S,5R)-5-(4-cyclopropylbenzamido)-2-methylpiperidin-1-yl]-3-{[3-fluoro-4-(4-methylpiperazin-1-yl)phenyl]amino}pyrazine-2-carboxamide] | ≤ 10 nM | 10 to 100 nM | 100 to 1000 nM | 100 to 1000 nM | 10 to 100 nM
10 | C[C@@H]1CC[C@H](NC(=O)N(C)C)CN1c1cnc(C(N)=O)c(Nc2cnn(C)c2)n1 [Example D-151, 5-[(2R,5S)-5-[(dimethylcarbamoyl)amino]-2-methylpiperidin-1-yl]-3-[(1-methyl-1H-pyrazol-4-yl)amino]pyrazine-2-carboxamide] | 10 to 100 nM | 10 to 100 nM | 1000 to 10000 nM | 1000 to 10000 nM | 100 to 1000 nM
11 | C[C@H]1CC[C@@H](NC(=O)N(C)C)CN1c1cnc(C(N)=O)c(Nc2cnn(C)c2)n1 [Example D-152, 5-[(2S,5R)-5-[(dimethylcarbamoyl)amino]-2-methylpiperidin-1-yl]-3-[(1-methyl-1H-pyrazol-4-yl)amino]pyrazine-2-carboxamide] | 10 to 100 nM | 1000 to 10000 nM | 1000 to 10000 nM | 1000 to 10000 nM | 100 to 1000 nM
12 | C[C@@H]1CC[C@H](NC(=O)c2ccc(C3CC3)cc2)CN1c1cnc(C(N)=O)c(Nc2ccc(N3CCN(C)CC3)cc2)n1 [Example D-153, 5-[(2R,5S)-5-(4-cyclopropylbenzamido)-2-methylpiperidin-1-yl]-3-{[4-(4-methylpiperazin-1-yl)phenyl]amino}pyrazine-2-carboxamide] | ≤ 10 nM | 10 to 100 nM | 10 to 100 nM | 100 to 1000 nM | 10 to 100 nM
13 | C[C@H]1CC[C@@H](NC(=O)c2ccc(C3CC3)cc2)CN1c1cnc(C(N)=O)c(Nc2ccc(N3CCN(C)CC3)cc2)n1 [Example D-154, 5-[(2S,5R)-5-(4-cyclopropylbenzamido)-2-methylpiperidin-1-yl]-3-{[4-(4-methylpiperazin-1-yl)phenyl]amino}pyrazine-2-carboxamide] | ≤ 10 nM | 100 to 1000 nM | 1000 to 10000 nM | > 10000 nM | 100 to 1000 nM
14 | CN(C)c1ccc2c(=O)n([C@@H]3CCCN(c4cnc(C(N)=O)c(Nc5cnn(C)c5)n4)C3)ccc2c1 [Example D-155, 5-[(3R)-3-[6-(dimethylamino)-1-oxo-1,2-dihydroisoquinolin-2-yl]piperidin-1-yl]-3-[(1-methyl-1H-pyrazol-4-yl)amino]pyrazine-2-carboxamide] | ≤ 10 nM | 100 to 1000 nM | 100 to 1000 nM | 1000 to 10000 nM | 100 to 1000 nM
15 | CN(C)c1ccc2c(c1)CCN([C@@H]1CCCN(c3cnc(C(N)=O)c(Nc4cnn(C)c4)n3)C1)C2=O [Example D-156, 5-[(3R)-3-[6-(dimethylamino)-1-oxo-1,2,3,4-tetrahydroisoquinolin-2-yl]piperidin-1-yl]-3-[(1-methyl-1H-pyrazol-4-yl)amino]pyrazine-2-carboxamide] | ≤ 10 nM | 1000 to 10000 nM | 100 to 1000 nM | > 10000 nM | 100 to 1000 nM
16 | C[C@H]1CC[C@@H](NC(=O)c2ccc(C(C)(C)O)cc2)CN1c1nnc(C(N)=O)c(Nc2cnn(C)c2)n1 [Example D-157, 3-[(2S,5R)-5-[4-(2-hydroxypropan-2-yl)benzamido]-2-methylpiperidin-1-yl]-5-[(1-methyl-1H-pyrazol-4-yl)amino]-1,2,4-triazine-6-carboxamide] | ≤ 10 nM | 10 to 100 nM | 10 to 100 nM | 1000 to 10000 nM | 10 to 100 nM
17 | Cc1cc(Nc2nc(N3CCC[C@@H](NC(=O)c4ccc(C(C)(C)O)cc4)C3)cnc2C(N)=O)sn1 [Example D-158, 5-[(3R)-3-[4-(2-hydroxypropan-2-yl)benzamido]piperidin-1-yl]-3-[(3-methyl-1,2-thiazol-5-yl)amino]pyrazine-2-carboxamide] | ≤ 10 nM | 100 to 1000 nM | 100 to 1000 nM | 1000 to 10000 nM | 100 to 1000 nM
18 | Cc1cc(Nc2nc(N3CCC[C@@H](NC(=O)c4ccc(C(C)(C)O)cc4)[C@H]3C)cnc2C(N)=O)sn1 [Example D-159, 5-[(2R,3R)-3-[4-(2-hydroxypropan-2-yl)benzamido]-2-methylpiperidin-1-yl]-3-[(3-methyl-1,2-thiazol-5-yl)amino]pyrazine-2-carboxamide] | ≤ 10 nM | 10 to 100 nM | 100 to 1000 nM | 100 to 1000 nM | 10 to 100 nM
19 | C[C@@H]1[C@H](NC(=O)c2ccc(C(C)(C)O)c(F)c2)CCCN1c1cnc(C(N)=O)c(Nc2cnn(C)c2)n1 [Example D-160, 5-[(2R,3R)-3-[3-fluoro-4-(2-hydroxypropan-2-yl)benzamido]-2-methylpiperidin-1-yl]-3-[(1-methyl-1H-pyrazol-4-yl)amino]pyrazine-2-carboxamide] | ≤ 10 nM | 10 to 100 nM | 100 to 1000 nM | 100 to 1000 nM | 10 to 100 nM
